# Source: patent US20240109881A1, “Heteroaryl Compounds as Ligand Directed Degraders of IRAK4” (Bristol-Myers Squibb Company, priority 2022, published 2024)
# Molecular target: T1, IRAK4 (Homo sapiens, UniProt Q9NWZ3)
# T1 construct: endogenous in cells; host or cells: THP-1 cells
# T1 sequence (Q9NWZ3 1-460): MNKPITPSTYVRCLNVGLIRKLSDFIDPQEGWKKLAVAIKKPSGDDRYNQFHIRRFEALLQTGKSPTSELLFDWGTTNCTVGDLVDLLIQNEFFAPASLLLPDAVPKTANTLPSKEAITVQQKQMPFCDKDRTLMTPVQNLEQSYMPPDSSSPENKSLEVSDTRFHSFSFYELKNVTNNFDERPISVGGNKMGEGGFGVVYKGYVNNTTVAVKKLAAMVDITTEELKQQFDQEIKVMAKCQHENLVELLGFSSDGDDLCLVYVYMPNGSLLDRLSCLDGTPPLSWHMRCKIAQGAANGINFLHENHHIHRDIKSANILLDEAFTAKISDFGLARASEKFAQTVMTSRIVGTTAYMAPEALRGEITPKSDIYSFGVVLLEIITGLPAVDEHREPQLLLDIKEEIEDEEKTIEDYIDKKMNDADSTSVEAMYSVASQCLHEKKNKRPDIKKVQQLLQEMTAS
# Experiment: LVL THP1 HTRF (THP1 Homogeneous Time Resolved Fluorescence)
# Format: cell-based
# Conditions: THP1 cells, 18 h incubation with compound; for DC50: read-out: LVL THP1 HTRF EC50
# How it was run: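 IRAK4 HTRF read-out (665/615 nm ratio, anti-IRAK4 d2 acceptor and K donor, 18 h dark incubation at room temperature) on lysates of THP-1 cells. Cells were treated 18 h at 37° C. with 20 nL compound in DMSO, in colorless RPMI with 10% FBS, with a duplicate CTG plate.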
SMILES,LVL THP1 HTRF YMIN,DC50
C[C@H](C#N)Nc1cc(-n2ncc3cc(C#N)cnc32)ncc1-n1cc([C@H]2CC[C@H](CCN3CCCN(c4ccc(C5CCC(=O)NC5=O)cc4)CC3)CC2)nn1 (some centres unmarked) [P-354],4.0%,13.7 nM
C[C@H](C#N)Nc1cc(N2CCc3cc(C#N)cnc32)ncc1-n1cc([C@H]2CC[C@H](CCN3CCN(c4ccc(N5CCC(=O)NC5=O)cc4)CC3)CC2)nn1 [P-486],24.9%,200 nM
"C[C@H](C#N)Nc1cc(-n2ncc3cc(C#N)cnc32)ncc1C(=O)N[C@H]1CC[C@H](CCN2CC[C@H]3[C@@H]2CCN3c2ccc([C@@]3(C)CCC(=O)NC3=O)cc2)CC1 (single isomer, unassigned) [P-427]",1.8%,40.4 nM
C[C@H](C#N)Nc1cc(-n2ncc3cc(C#N)cnc32)ncc1-n1cc([C@H]2CC[C@H](CCN3CC=C(c4ccc(N5CCC(=O)NC5=O)cc4)CC3)CC2)nn1 [P-330],2.3%,17.4 nM
C[C@H](C#N)Nc1cc(-n2ncc3cc(C#N)cnc32)ncc1-n1cc([C@H]2CC[C@H](CCN3CCN(c4cnc(N5CCC(=O)NC5=O)cn4)[C@H](C)C3)CC2)nn1 [P-440],2.9%,53.7 nM
"C[C@H](C#N)Nc1cc(-n2ncc3cc(C#N)cnc32)ncc1-n1cc([C@H]2CC[C@H](CCN3CCN(c4ccc([C@@]5(C)CCC(=O)NC5=O)nc4)[C@@H](C)C3)CC2)nn1 (single isomer, unassigned) [P-289]",7.7%,11.3 nM
C[C@H](C#N)Nc1cc(-n2ncc3cc(C#N)cnc32)ncc1-n1cc(C2CCC(CCN3CCC(c4ccc([C@@]5(C)CCC(=O)NC5=O)cc4)CC3)CC2)nn1 (some centres unmarked) [P-233],2.8%,
C[C@H](C#N)Nc1cc(-n2ncc3cc(C#N)cnc32)ncc1-n1cc([C@H]2CC[C@H](CCN3CCC4(C3)CN(c3ccc([C@@]5(C)CCC(=O)NC5=O)cc3)C4)CC2)nn1 [P-448],3.9%,32.1 nM
C[C@H](C#N)Nc1cc(-n2ncc3cc(C#N)cnc32)ncc1-n1cc(C2CCC(CCN3C[C@H](C)N(c4ccc(C5CCC(=O)NC5=O)cc4)C[C@H]3C)CC2)nn1 (some centres unmarked) [P-206],1.1%,2 nM
C[C@H](C#N)Nc1cc(-n2ncc3cc(C#N)cnc32)ncc1-n1cc([C@H]2CC[C@H](CCN3CCN(c4cccc5c(N6CCC(=O)NC6=O)cncc45)CC3)CC2)nn1 [P-361],1.2%,5 nM
"C[C@H](C#N)Nc1cc(-n2ncc3cc(C#N)cnc32)ncc1-n1cc([C@H]2CC[C@H](CCN3CC[C@H]4[C@@H]3CCN4c3ccc([C@@]4(C)CCC(=O)NC4=O)nc3)CC2)nn1 (single isomer, unassigned) [P-288]",4.7%,7.1 nM
"C[C@H](C#N)Nc1cc(-n2ncc3cc(C#N)cnc32)ncc1-n1cc([C@H]2CC[C@H](CCN3CCC(c4ccc(N5CCC(=O)NC5=O)cc4)C3)CC2)nn1 (single isomer, unassigned) [P-491]",14.9%,156 nM
C[C@H](C#N)Nc1cc(-n2ncc3cc(C#N)cnc32)ncc1-n1cc([C@H]2CC[C@H](CCN3CCN(c4ccc(N5CCC(=O)NC5=O)cn4)[C@H](C)C3)CC2)nn1 [P-359],−1.9%,2.5 nM
C[C@]1(c2ccc(N3CCN(CCC4CCC(c5cn(-c6cnc(-n7ncc8cc(C#N)cnc87)cc6NC6(C#N)CC6)nn5)CC4)CC3)cc2)CCC(=O)NC1=O (some centres unmarked) [P-234],3.1%,
C[C@H](C#N)Nc1cc(-n2ncc3cc(C#N)cnc32)ncc1-n1cc(C[C@H]2CC[C@H](CN3CCN(c4ccc(C5CCC(=O)NC5=O)cc4)CC3)CC2)nn1 (some centres unmarked) [P-322],4.4%,16.5 nM
C[C@H](C#N)Nc1cc(-n2ncc3cc(C#N)cnc32)ncc1C(=O)N[C@H]1CC[C@H](CCN2CCC(c3ccc([C@@]4(C)CCC(=O)NC4=O)cc3)CC2)CC1 [P-273],5.6%,4.9 nM
"COc1cc([C@@]2(C)CCC(=O)NC2=O)ccc1N1CCN(CC[C@H]2CC[C@H](c3cn(-c4cnc(-n5ncc6cc(C#N)c(N)nc65)cc4N[C@H](C)C#N)nn3)CC2)C[C@@H]1C (single isomer, unassigned) [P-303]",90.1%,111 nM

SMILES,LVL THP1 HTRF YMIN,DC50
C[C@H](C#N)Nc1cc(-n2ncc3cc(C#N)c(N)nc32)ncc1-n1cc(C2CCC(CCN3C[C@H](C)N(c4ccc(C5CCC(=O)NC5=O)cc4)C[C@H]3C)CC2)nn1 (some centres unmarked) [P-215],0.7%,< 1 nM
C[C@H](C#N)Nc1cc(-n2ncc3cc(C#N)cnc32)ncc1C(=O)N[C@H]1CC[C@H](CCN2CCN(c3ccc(C4CCC(=O)NC4=O)cc3)C3(CC3)C2)CC1 (some centres unmarked) [P-191],20.4%,1790 nM
"C[C@H](C#N)Nc1cc(-n2ncc3cc(C#N)cnc32)ncc1-n1cc([C@H]2CC[C@H](CCN3C[C@@H]4CN(c5ccc(N6CCC(=O)NC6=O)cc5)C[C@@H]4C3)CC2)nn1 (single isomer, unassigned) [P-323]",12.0%,96.7 nM
CC1CN(CC[C@H]2CC[C@H](NC(=O)c3cnc(-n4ncc5cc(C#N)cnc54)cc3N[C@H](C)C#N)CC2)CCC1c1ccc([C@@]2(C)CCC(=O)NC2=O)cc1 (some centres unmarked) [P-272],10.2%,10.3 nM
C[C@H](C#N)Nc1cc(-n2ncc3cc(C#N)cnc32)ncc1-n1cc(C2CCC(O)(CCN3CCN(c4ccc(C5CCC(=O)NC5=O)cc4)CC3)CC2)nn1 (some centres unmarked) [P-227],3.0%,2 nM
"C[C@H](C#N)Nc1cc(-n2ncc3cc(C#N)c(N)nc32)ncc1-n1cc([C@H]2CC[C@H](CCN3CCN(c4ccc([C@@]5(C)CCC(=O)NC5=O)cn4)[C@@H](C)C3)CC2)nn1 (single isomer, unassigned) [P-259]",89.5%,26.1 nM
Cc1cc(C2CCN(CC[C@H]3CC[C@H](c4cn(-c5cnc(-n6ncc7cc(C#N)cnc76)cc5N[C@H](C)C#N)nn4)CC3)CC2)ccc1N1CCC(=O)NC1=O [P-336],5.5%,25.1 nM
C[C@H](C#N)Nc1cc(-n2ncc3cc(C#N)cnc32)ncc1-n1cc([C@H]2CC[C@H](CCN3CCN(c4ccc(N5CCC(=O)NC5=O)c(F)c4)CC3)CC2)nn1 [P-365],2.0%,2.3 nM
"C[C@H](C#N)Nc1cc(-n2ncc3cc(C#N)cnc32)ncc1-n1cc(C2CCC(CCN3CCN(c4ccc(C5CCC(=O)NC5=O)cc4)C4COCC43)CC2)nn1 (single isomer, unassigned) [P-237]",2.8%,7 nM
C[C@H](C#N)Nc1cc(-n2ncc3cc(C#N)cnc32)ncc1-n1cc(C2CCC(CCN3[C@H](C)CN(c4ccc([C@@]5(C)CCC(=O)NC5=O)cc4)C[C@H]3C)CC2)nn1 (some centres unmarked) [P-243],3.9%,159 nM
C[C@H](C#N)Nc1cc(-n2ncc3cc(C#N)cnc32)ncc1-n1cc(C2CCC(CCN3CCN(c4ccc([C@@]5(C)CCC(=O)NC5=O)cc4)[C@@H](C)C3)CC2)nn1 (some centres unmarked) [P-241],3.5%,39 nM
C[C@H](C#N)Nc1cc(-n2ncc3cc(C#N)cnc32)ncc1C(=O)N[C@H]1CC[C@H](CCN2CC[C@H](c3ccc([C@@]4(C)CCC(=O)NC4=O)cc3)C[C@H]2C)CC1 [P-270],0.2%,6.5 nM
C[C@H](C#N)Nc1cc(-n2ncc3cc(C#N)cnc32)ncc1-n1cc([C@H]2CC[C@H](CCN3CCC(c4cn(C5CCC(=O)NC5=O)nn4)CC3)CC2)nn1 (some centres unmarked) [P-344],8.9%,91.2 nM
C[C@H](C#N)Nc1cc(Nc2ncc(C#N)cc2Cl)ncc1-n1cc([C@H]2CC[C@H](CCN3CCN(c4ccc(C5CCC(=O)NC5=O)cc4)CC3)CC2)nn1 (some centres unmarked) [P-379],1.8%,4 nM
C[C@H](C#N)Nc1cc(-n2ncc3cc(C#N)cnc32)ncc1-n1cc([C@H]2CC[C@H](CCN3CC4(CC(c5ccc(N6CCC(=O)NC6=O)cn5)C4)C3)CC2)nn1 [P-449],23.7%,424 nM
C[C@H](C#N)Nc1cc(-n2ncc3cc(C#N)cnc32)ncc1-c1cn([C@H]2CC[C@H](CCN3CCN(c4ccc(C5CCC(=O)NC5=O)cc4)CC3)CC2)nn1 (some centres unmarked) [P-195],,6 nM
"C[C@H](C#N)Nc1cc(-n2ncc3cc(C#N)cnc32)ncc1-n1cc([C@H]2CC[C@H](CCN3CC[C@H]4[C@@H]3CCN4c3ccc(N4CCC(=O)NC4=O)c(F)c3)CC2)nn1 (single isomer, unassigned) [P-461]",5.4%,3.7 nM
